Assay results: US7439245B2, “Compounds” (Glaxo Group Limited, priority 2003, dated 2008)

Biological target: T1, human cloned 5-HT6 receptors (Homo sapiens, UniProt P50406)
T1 construct: expressed in transfected cells
Test: 5-HT6 receptor affinity (procedures outlined in WO98/27081)
Assay type: binding
Details: read-out: pKi values at human cloned 5-HT6 receptors (converted)
Text: Compounds can be tested following the procedures outlined in WO98/27081.

T1 sequence (P50406 whole entry): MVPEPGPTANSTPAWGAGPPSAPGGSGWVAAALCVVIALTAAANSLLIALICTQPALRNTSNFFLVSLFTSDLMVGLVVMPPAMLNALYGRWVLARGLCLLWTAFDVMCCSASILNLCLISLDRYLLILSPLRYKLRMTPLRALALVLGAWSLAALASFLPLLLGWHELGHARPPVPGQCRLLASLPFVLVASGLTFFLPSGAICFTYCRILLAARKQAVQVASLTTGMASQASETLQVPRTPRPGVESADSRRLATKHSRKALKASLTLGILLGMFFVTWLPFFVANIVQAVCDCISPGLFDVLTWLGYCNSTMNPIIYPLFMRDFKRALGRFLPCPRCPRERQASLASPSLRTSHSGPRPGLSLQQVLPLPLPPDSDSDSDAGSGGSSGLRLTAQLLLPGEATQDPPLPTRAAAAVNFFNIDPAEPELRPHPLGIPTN

Compound | Ki [nM]
O=S(=O)(c1ccccc1)c1cccc(N2CCNCC2)c1 [Example E1, 1-(3-Phenylsulfonyl-phenyl)piperazine] | < 10
O=S(=O)(c1ccccc1)c1cccc(N2CCNCC2)c1Cl [Example E2, 1-(3-Phenylsulfonyl-2-chlorophenyl)piperazine] | < 10
